Measured values published in patent publication US20230167118A1, “DEGRADATION OF BRUTON'S TYROSINE KINASE (BTK) BY CONJUGATION OF BTK INIDBITORS WITH E3 LIGASE LIGAND AND METHODS OF USE” (BEIGENE, LTD., priority 2020, published 2023).

Assays:
[1] = target: T1, BTK (Homo sapiens, UniProt Q06187); experiment: Cell Degradation: BTK degradation in TMD-8 cells, HTRF assay; format: cell-based; conditions: 6 h treatment, IC50 (DC50) of BTK degradation
T1 construct: High control=Cell group with added DMSO and without compound, indicating microplate readings without BTK degradation; endogenous in cells; host or cells: TMD-8 cells
T1 sequence (Q06187 whole entry): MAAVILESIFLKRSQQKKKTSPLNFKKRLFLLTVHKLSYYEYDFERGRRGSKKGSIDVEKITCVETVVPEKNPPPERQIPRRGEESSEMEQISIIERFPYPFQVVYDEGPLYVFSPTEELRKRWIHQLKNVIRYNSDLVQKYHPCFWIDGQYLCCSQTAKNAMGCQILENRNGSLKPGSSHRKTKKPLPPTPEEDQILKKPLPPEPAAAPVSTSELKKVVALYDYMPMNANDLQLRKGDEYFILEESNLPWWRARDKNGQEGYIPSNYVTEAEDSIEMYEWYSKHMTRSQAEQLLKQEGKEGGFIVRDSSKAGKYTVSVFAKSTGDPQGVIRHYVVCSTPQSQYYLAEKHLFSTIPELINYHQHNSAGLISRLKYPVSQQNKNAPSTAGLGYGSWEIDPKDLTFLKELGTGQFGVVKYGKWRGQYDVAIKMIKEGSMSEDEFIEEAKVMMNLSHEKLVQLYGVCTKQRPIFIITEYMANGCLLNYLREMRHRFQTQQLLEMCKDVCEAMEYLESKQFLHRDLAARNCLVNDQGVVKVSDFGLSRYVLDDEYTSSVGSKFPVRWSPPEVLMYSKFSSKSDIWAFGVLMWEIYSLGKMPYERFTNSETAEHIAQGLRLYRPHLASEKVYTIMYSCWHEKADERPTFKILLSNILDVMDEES
Description: TMD-8 cells are treated with compounds in 0.2% DMSO, dilution is done according to the following protocol: (1) make 500× stock solution in DMSO from 1 mM by 6-fold dilution, total 8 doses were included; (2) make 2× solution in cell culture medium by transferring 0.5 μl 500× stock solution into 125 μl medium; (3) 15 μl of 2× solution is added to cells and incubate for 6 h.
After 6 h treatment, add […] 4×lysis buffer to each well; seal the plate and incubate 30 min at room temperature on a plate shaker; Once the cells are lysed, 16 μL of cell lysate are transferred to a PE 384-well HTRF detection plate; 4 μL of pre-mixed HTRF antibodies are added to each well; Cover the plate with a plate sealer, spin 1000 rpm for 1 min, Incubate overnight at room temperature; Read on BMG PheraStar with HTRF protocol (337 nm-665 nm-620 nm).
The inhibition (degradation) percentage of the compound was calculated by the following equation: Inhibition percentage of Compound=100-100× (Signal-low control)/(High control-low control), wherein signal=each test compound group
Dmax is the maximum percentage of inhibition (degradation).
The IC50 (DC50) value of a compound can be obtained by fitting the following equation
Y=Bottom+(TOP-Bottom)/(1+((IC50/X)^hillslope))
(§1) Wherein, X and Y are known values, and IC50, Hillslope, Top and Bottom are the parameters obtained by fitting with software. Y is the inhibition percentage (calculated from the equation), X is the concentration of the compound; IC50 is the concentration of the compound when the 50% inhibition is reached. The smaller the IC50 value is, the stronger the inhibitory ability of the compound is. Vice versa, the higher the IC50 value is, the weaker the ability the inhibitory ability of the compound is; Hillslope represents the slope of the fitted curve, generally around 1 *; Bottom represents the minimum value of the curve obtained by data fitting, which is generally 0%±20%; Top represents the maximum value of the curve obtained by data fitting, which is generally 100%±20%. The experimental data were fitted by calculating and analyzing with Dotmatics data analysis software.

[2] = system: HEK-293 cells; experiment: HEK-293 Cytotoxicity Assay (CellTiter-Glo); format: cell-based; conditions: Homo sapiens, HEK293, 72 h incubation, CellTiter-Glo luminescence
Description: HEK-293 Cytotoxicity Assay
HEK-293 cells are treated with compounds diluted in 0.2% DMSO, dilution is done according to the following protocol: (1) make 500× stock solution in DMSO from 5 mM by 4-fold dilution, total 8 doses were included; (2) make 2× solution in cell culture medium by transferring 0.5 ul 500× stock solution into 125 ul medium; (3) 50 ul of 2× solution is added to cells and incubate for 72 h.
Add 25 μl of the CellTiter-Glo®Reagent [I (Promega)—Cat No. G7572] to each well in the 96-well plate. Mix contents for 2 minutes on an orbital shaker to induce cell lysis. Allow the plate to incubate at room temperature for 10 minutes to stabilize luminescent signal. Record luminescence on BMG PheraStar with luminescence protocol.
as §1, with “The IC50 value of a compound can be obtained by fitting the following equation. Y=Bottom+(TOP−Bottom)/(1+((IC50/X)^hillslope)) Wherein,” for “Wherein,”, “1*;” for “1 *;”

Row | SMILES | DC50 [1] [nM] | IC50 [2] [nM]
1 | Cc1cc(-c2ncnc3[nH]c(-c4ccc(C5CCN(CC6CCN(c7cc8c(cc7F)C(=O)N(C7CCC(=O)NC7=O)C8=O)CC6)CC5)cc4)cc23)ccc1CNC(=O)c1nc(C(C)(C)C)no1 (stereo not shown) [Example 2, 3-(tert-butyl)-N-(4-(6-(4-(1-((1-(2-(2,6-dioxopiperidin-3-yl)-6-fluoro-1,3-dioxoisoindolin-5-yl)piperidin-4-yl)methyl)piperidin-4-yl)phenyl)-7H-pyrrolo[2,3-d]pyrimidin-4-yl)-2-methylbenzyl)-1,2,4-oxadiazole-5-carboxamide] | 1.75 | > 10000
2 | Cc1cc(-c2ncnc3[nH]c(-c4ccc(C5CCN(CC6CCN(c7ccc(N8CCC(=O)NC8=O)cc7)CC6)CC5)cc4)cc23)ccc1[C@@H](C)NC(=O)c1nc(C(C)(C)C)no1 [Example 7, (R)-3-(tert-butyl)-N-(1-(4-(6-(4-(1-((1-(4-(2,4-dioxotetrahydropyrimidin-1(2H)-yl)phenyl)piperidin-4-yl)methyl)piperidin-4-yl)phenyl)-7H-pyrrolo[2,3-d]pyrimidin-4-yl)-2-methylphenyl)ethyl)-1,2,4-oxadiazole-5-carboxamide] | 1.3 | 1600
3 | Cc1cc(-c2ncnc3[nH]c(-c4ccc(C5CCN(CC6CCN(c7ccc(N8CCC(=O)NC8=O)cc7)CC6)CC5)cc4)cc23)ccc1[C@H](C)NC(=O)c1nc(C(C)(C)C)no1 [Example 8, (S)-3-(tert-butyl)-N-(1-(4-(6-(4-(1-((1-(4-(2,4-dioxotetrahydropyrimidin-1(2H)-yl)phenyl)piperidin-4-yl)methyl)piperidin-4-yl)phenyl)-7H-pyrrolo[2,3-d]pyrimidin-4-yl)-2-methylphenyl)ethyl)-1,2,4-oxadiazole-5-carboxamide] | 40.9 | 1960
4 | Cc1c(-c2ncnc3[nH]c(-c4ccc(C5CCN(CC6CCN(c7ccc(N8CCC(=O)NC8=O)cc7)CC6)CC5)cc4)cc23)cccc1N1CCn2c(cc3c2CC(C)(C)C3)C1=O [Example 9, 1-(4-(4-((4-(4-(4-(3-(7,7-dimethyl-1-oxo-1,3,4,6,7,8-hexahydro-2H-cyclopenta[4,5]pyrrolo[1,2-a]pyrazin-2-yl)-2-methylphenyl)-7H-pyrrolo[2,3-d]pyrimidin-6-yl)phenyl)piperidin-1-yl)methyl)piperidin-1-yl)phenyl)dihydropyrimidine-2,4(1H,3H)-dione] | 7.2 | 746
5 | Cc1c(-c2ncnc3[nH]c(-c4ccc(N5CCN(CC6CCN(c7ccc(N8CCC(=O)NC8=O)cc7)CC6)CC5)nc4)cc23)cccc1N1CCn2c(cc3c2CC(C)(C)C3)C1=O [Example 10, 1-(4-(4-((4-(5-(4-(3-(7,7-dimethyl-1-oxo-1,3,4,6,7,8-hexahydro-2H-cyclopenta[4,5]pyrrolo[1,2-a]pyrazin-2-yl)-2-methylphenyl)-7H-pyrrolo[2,3-d]pyrimidin-6-yl)pyridin-2-yl)piperazin-1-yl)methyl)piperidin-1-yl)phenyl)dihydropyrimidine-2,4(1H,3H)-dione] | 3.4 | > 10000
6 | Cc1c(-c2ncnc3[nH]c(-c4ccc(N5CCN(CC6CCN(c7ccc(N8CCC(=O)NC8=O)cc7)CC6)CC5)cc4)cc23)cccc1N1CCn2c(cc3c2CC(C)(C)C3)C1=O [Example 11, 1-(4-(4-((4-(4-(4-(3-(7,7-dimethyl-1-oxo-1,3,4,6,7,8-hexahydro-2H-cyclopenta[4,5]pyrrolo[1,2-a]pyrazin-2-yl)-2-methylphenyl)-7H-pyrrolo[2,3-d]pyrimidin-6-yl)phenyl)piperazin-1-yl)methyl)piperidin-1-yl)phenyl)dihydropyrimidine-2,4(1H,3H)-dione] | 4.7 | > 10000
7 | Cc1cc(-c2ncnc3[nH]c(-c4c(C)nn(C5CCN(CC6CCN(c7ccc(N8CCC(=O)NC8=O)cc7)CC6)CC5)c4C)cc23)ccc1[C@@H](C)N(C)C(=O)c1nc(C(C)(C)C)no1 [Example 155, (R)-3-(tert-butyl)-N-(1-(4-(6-(1-(1-((1-(4-(2,4-dioxotetrahydropyrimidin-1(2H)-yl)phenyl)piperidin-4-yl)methyl)piperidin-4-yl)-3,5-dimethyl-1H-pyrazol-4-yl)-7H-pyrrolo[2,3-d]pyrimidin-4-yl)-2-methylphenyl)ethyl)-N-methyl-1,2,4-oxadiazole-5-carboxamide] | 13.3 | 

Further lines, with some results ahead:

Row | DC50 [1] [nM] | SMILES | IC50 [2] [nM]
8 | 0.54 | Cc1cc(-c2ncnc3[nH]c(-c4ccc(C5CCN(CC6CCN(c7ccc(N8CCC(=O)NC8=O)cc7)CC6)CC5)cc4)cc23)ccc1CNC(=O)c1nc(C(C)(C)C)no1 [Example 1, 3-(tert-butyl)-N-(4-(6-(4-(1-((1-(4-(2,4-dioxotetrahydropyrimidin-1(2H)-yl)phenyl)piperidin-4-yl)methyl)piperidin-4-yl)phenyl)-7H-pyrrolo[2,3-d]pyrimidin-4-yl)-2-methylbenzyl)-1,2,4-oxadiazole-5-carboxamide] | > 10000
9 | 3.8 | Cc1cc(-c2ncnc3[nH]c(-c4ccc(C5CCN(CCC6CCN(c7ccc(N8CCC(=O)NC8=O)cc7)CC6)CC5)cc4)cc23)ccc1CNC(=O)c1nc(C(C)(C)C)no1 [Example 3, 3-(tert-butyl)-N-(4-(6-(4-(1-(2-(1-(4-(2,4-dioxotetrahydropyrimidin-1(2H)-yl)phenyl)piperidin-4-yl)ethyl)piperidin-4-yl)phenyl)-7H-pyrrolo[2,3-d]pyrimidin-4-yl)-2-methylbenzyl)-1,2,4-oxadiazole-5-carboxamide] | 1700
10 | 2.3 | Cc1cc(-c2ncnc3[nH]c(-c4ccc(C5CCN(CCC6CCN(c7ccc(C8CCC(=O)NC8=O)cc7)CC6)CC5)cc4)cc23)ccc1CNC(=O)c1nc(C(C)(C)C)no1 (stereo not shown) [Example 4, 3-(tert-butyl)-N-(4-(6-(4-(1-(2-(1-(4-(2,6-dioxopiperidin-3-yl)phenyl)piperidin-4-yl)ethyl)piperidin-4-yl)phenyl)-7H-pyrrolo[2,3-d]pyrimidin-4-yl)-2-methylbenzyl)-1,2,4-oxadiazole-5-carboxamide] | 3700
11 | 1 | Cc1cc(-c2ncnc3[nH]c(-c4ccc(C5CCN(CC6CN(c7ccc(N8CCC(=O)NC8=O)cc7)C6)CC5)cc4)cc23)ccc1CNC(=O)c1nc(C(C)(C)C)no1 [Example 5, 3-(tert-butyl)-N-(4-(6-(4-(1-((1-(4-(2,4-dioxotetrahydropyrimidin-1(2H)-yl)phenyl)azetidin-3-yl)methyl)piperidin-4-yl)phenyl)-7H-pyrrolo[2,3-d]pyrimidin-4-yl)-2-methylbenzyl)-1,2,4-oxadiazole-5-carboxamide] | 2960
12 | 1.7 | Cc1cc(-c2ncnc3[nH]c(-c4ccc(C5CCN(CCCC6CN(c7ccc8c(c7)C(=O)N(C7CCC(=O)NC7=O)C8=O)C6)CC5)cc4)cc23)ccc1CNC(=O)c1nc(C(C)(C)C)no1 (stereo not shown) [Example 6, 3-(tert-butyl)-N-(4-(6-(4-(1-(3-(1-(2-(2,6-dioxopiperidin-3-yl)-1,3-dioxoisoindolin-5-yl)azetidin-3-yl)propyl)piperidin-4-yl)phenyl)-7H-pyrrolo[2,3-d]pyrimidin-4-yl)-2-methylbenzyl)-1,2,4-oxadiazole-5-carboxamide] | > 10000
13 | 2 | COc1ccc(C(=O)N2CCC(c3ccc(-c4cc5c(-c6ccc(CNC(=O)c7nc(C(C)(C)C)no7)c(C)c6)ncnc5[nH]4)cc3)CC2)cc1N1CCC(=O)NC1=O [Example 12, 3-(tert-butyl)-N-(4-(6-(4-(1-(3-(2,4-dioxotetrahydropyrimidin-1(2H)-yl)-4-methoxybenzoyl)piperidin-4-yl)phenyl)-7H-pyrrolo[2,3-d]pyrimidin-4-yl)-2-methylbenzyl)-1,2,4-oxadiazole-5-carboxamide] | > 10000
